Like-named read-outs stand apart in the source and are kept apart here. Bounds are passed on as bounds.

In general, IC50 refers to the midpoint of a concentration-inhibition curve.

The target of experiment [1] is T1, USP28 (Homo sapiens, UniProt Q96RU2).
T1 construct: purchased R&D Systems
T1 sequence (Q96RU2 1-1077): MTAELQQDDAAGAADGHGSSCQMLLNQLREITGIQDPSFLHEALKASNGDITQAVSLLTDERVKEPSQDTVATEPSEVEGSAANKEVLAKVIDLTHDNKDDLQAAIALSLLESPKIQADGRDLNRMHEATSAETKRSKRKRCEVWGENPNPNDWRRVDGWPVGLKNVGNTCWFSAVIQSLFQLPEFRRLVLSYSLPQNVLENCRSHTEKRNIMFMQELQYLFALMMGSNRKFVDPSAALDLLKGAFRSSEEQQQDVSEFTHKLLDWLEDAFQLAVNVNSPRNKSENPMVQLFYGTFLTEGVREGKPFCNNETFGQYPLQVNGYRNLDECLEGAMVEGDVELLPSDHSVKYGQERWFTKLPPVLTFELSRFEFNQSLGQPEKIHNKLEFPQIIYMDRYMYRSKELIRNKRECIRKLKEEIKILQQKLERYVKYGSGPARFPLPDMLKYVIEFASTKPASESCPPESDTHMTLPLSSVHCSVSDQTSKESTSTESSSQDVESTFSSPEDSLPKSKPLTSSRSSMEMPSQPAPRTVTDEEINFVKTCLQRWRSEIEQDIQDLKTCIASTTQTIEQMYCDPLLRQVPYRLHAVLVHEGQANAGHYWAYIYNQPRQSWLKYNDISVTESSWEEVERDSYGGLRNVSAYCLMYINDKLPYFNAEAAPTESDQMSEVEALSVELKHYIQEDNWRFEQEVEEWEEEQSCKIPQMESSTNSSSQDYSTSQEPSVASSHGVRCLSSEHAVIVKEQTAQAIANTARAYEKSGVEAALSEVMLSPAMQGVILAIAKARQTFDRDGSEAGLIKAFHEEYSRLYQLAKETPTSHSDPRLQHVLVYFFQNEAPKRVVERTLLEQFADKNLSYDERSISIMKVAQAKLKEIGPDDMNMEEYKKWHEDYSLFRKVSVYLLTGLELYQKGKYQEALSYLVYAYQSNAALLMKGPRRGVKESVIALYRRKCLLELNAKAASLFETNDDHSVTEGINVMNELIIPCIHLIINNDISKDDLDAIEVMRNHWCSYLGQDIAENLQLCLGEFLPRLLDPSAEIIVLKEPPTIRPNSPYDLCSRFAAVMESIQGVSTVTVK
Description: USP28 activity measured using ubiquitin-rhodamine 110 method. It is filed as biochemical. The note with it: for IC50: purified USP28 4 nM, ubiquitin-rhodamine 110 125 nM, 30 min preincubation. As for the experimental part: USP28 activity was measured using ubiquitin-rhodamine 110 method.
(§1) Purified USP28 and the ubiquitin-rhodamine 110 substrate used for measuring DUBs activity were both from R&D Systems. Test compounds were first dissolved in DMSO to prepare a 10 mM stock solution, and then the stock solution was diluted with a buffer solution [containing 20 mM Tris-HCl (pH 8.0), 2 mM CaCl2), 3 mM BME, 0.01% Prionix, 0.01% Triton X-100] to the desired concentration (with DMSO content less than or equal to 0.5%). The dilution was mixed well with USP28 (final concentration 4 nM) in a 96-well plate and incubated at room temperature for 30 min, and then added with the substrate (ubiquitin-rhodamine 110) to 125 nM. The final volume of the whole reaction system was 20 μL. The released fluorescence (excitation wavelength 485 nm, emission wavelength 535 nm) was detected immediately on a microplate reader after the addition of the substrate. The inhibitory rate of the test compound against USP28 was calculated according to the following formula: Inhibition %=1−[(test compound+fluorescence value of substrate−fluorescence value of test compound (no substrate))/mean fluorescence value of DMSO control group−fluorescence value of test compound (no substrate)]
According to the inhibitory rates of the test compound against USP28 under different concentrations, IC50 was calculated.

For experiment [2], the target named is T2, USP25 (Homo sapiens, UniProt Q9UHP3).
T2 construct: purchased R&D Systems
T2 sequence (Q9UHP3 1-1055): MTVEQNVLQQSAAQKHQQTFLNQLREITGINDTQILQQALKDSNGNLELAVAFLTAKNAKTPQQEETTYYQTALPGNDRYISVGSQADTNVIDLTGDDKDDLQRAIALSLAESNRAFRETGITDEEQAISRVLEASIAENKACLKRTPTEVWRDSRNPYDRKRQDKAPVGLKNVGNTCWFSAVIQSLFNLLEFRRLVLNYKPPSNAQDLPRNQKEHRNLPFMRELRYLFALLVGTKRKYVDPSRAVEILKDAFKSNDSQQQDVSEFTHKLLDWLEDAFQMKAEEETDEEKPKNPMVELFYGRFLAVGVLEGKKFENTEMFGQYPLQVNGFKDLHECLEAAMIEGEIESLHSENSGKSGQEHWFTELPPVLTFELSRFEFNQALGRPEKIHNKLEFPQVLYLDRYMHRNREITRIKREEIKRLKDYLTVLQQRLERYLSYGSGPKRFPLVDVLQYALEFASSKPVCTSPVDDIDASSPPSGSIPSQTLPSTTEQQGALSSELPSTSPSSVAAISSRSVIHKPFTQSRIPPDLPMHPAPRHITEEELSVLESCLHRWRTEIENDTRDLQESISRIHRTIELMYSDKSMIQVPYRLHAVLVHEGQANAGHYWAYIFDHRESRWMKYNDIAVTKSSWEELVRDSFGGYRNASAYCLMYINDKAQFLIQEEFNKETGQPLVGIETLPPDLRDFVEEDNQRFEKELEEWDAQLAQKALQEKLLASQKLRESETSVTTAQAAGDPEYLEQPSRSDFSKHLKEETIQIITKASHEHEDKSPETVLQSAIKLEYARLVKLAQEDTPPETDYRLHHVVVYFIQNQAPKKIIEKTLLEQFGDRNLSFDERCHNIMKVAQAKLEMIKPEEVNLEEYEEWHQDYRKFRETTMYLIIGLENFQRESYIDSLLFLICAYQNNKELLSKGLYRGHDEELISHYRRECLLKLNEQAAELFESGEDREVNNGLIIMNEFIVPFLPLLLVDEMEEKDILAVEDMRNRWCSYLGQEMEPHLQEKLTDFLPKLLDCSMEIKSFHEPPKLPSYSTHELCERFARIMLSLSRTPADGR
Nature of the experiment: USP25 activity measured using ubiquitin-rhodamine 110 method. It is filed as biochemical. The note with it: for IC50: purified USP25 15 nM, ubiquitin-rhodamine 110 125 nM, 30 min preincubation. The method, then:
USP25 activity was measured using ubiquitin-rhodamine 110 method.
as §1, with “Purified USP25” for “Purified USP28”, “with USP25” for “with USP28”, “concentration 15” for “concentration 4”, “the substrate, and the” for “the substrate. The”, “against USP25” for “against USP28”
As in Example 11, according to the inhibitory rates of the test compound against USP25 under different concentrations, IC50 was calculated.

Setting [3] is: Inhibitory activity against USP28 (IC50).
The mark [4] stands for this setting: read-out: Inhibitory activity against USP25 (IC50).
The mark [5] stands for this setting: read-out: Inhibitory activity against USP28 (IC50).
Setting [6] is: Inhibitory activity against USP25 (IC50).
Setting [7] is: ratio of IC50 of related 3-NH2 compound (F) to IC50 of 3-NHMe compound disclosed herein (E).

`CNc1c(C(=O)NCCc2ccc(N3C[C@H]4CC[C@@H](C3)N4)cc2)sc2nc(C(C)C)ccc12` [Compound I-12]: the IC50 in experiment [1] (setting [3]) was less than 100 nM; in experiment [2] (setting [4]) it was 5000 to 10000 nM.
On to `CNc1c(C(=O)NCCc2ccc(N3C[C@H]4CC[C@@H](C3)N4)cc2)sc2nc(C#N)ccc12` [Compound I-80], for which the IC50 in experiment [1] (setting [5]) and in experiment [2] (setting [4]) was 1000 to 5000 nM in each case.
For the compound `CNc1c(C(=O)N[C@@H](C)Cc2ccc(Br)cc2)sc2nc(C)ccc12` [Compound I-61], the IC50 was 1000 to 5000 nM in experiment [1] (setting [5]) and greater than 10000 nM in experiment [2] (setting [4]).
As to `CNc1c(C(=O)N[C@@H](C)Cc2ccc(N3C[C@H]4CC[C@@H](C3)N4)cc2)sc2nc(C)ccc12` [Compound I-63], the IC50 is 100 to 1000 nM in experiment [1] (setting [5]) and greater than 10000 nM in experiment [2] (setting [4]).
For the compound `CNc1c(C(=O)NCCc2ccc(N3C[C@H]4CC[C@@H](C3)N4)c(F)c2)sc2nc(C)ccc12` [Compound I-40], the IC50 is less than 100 nM in experiment [1] (setting [3]) and 100 to 1000 nM in experiment [2] (setting [4]).
Consider `CNc1c(C(=O)NCCc2coc3ccccc23)sc2nc(C)ccc12` [Compound I-56], for which the IC50 in experiment [1] (setting [5]) lay in the range of 100 to 1000 nM; in experiment [2] (setting [4]), 1000 to 5000 nM.
For `CNc1c(C(=O)NCCc2ccc(N3C[C@H]4CC[C@@H](C3)N4)cc2)sc2nccnc12` [Compound I-70], in that order: 1000 to 5000 nM and greater than 10000 nM.
For `CNc1c(C(=O)NCCc2ccc(N3C[C@H]4CC[C@@H](C3)N4)cc2)sc2nc(C(F)(F)F)ccc12` [Compound I-16], in that order: 100 to 1000 nM and 1000 to 5000 nM.
On to `CNc1c(C(=O)NCCc2ccc(N3C[C@H]4CC[C@@H](C3)N4)cc2)sc2nc(N)cc(C(F)F)c12` [Compound I-95], for which the IC50 in experiment [1] (setting [3]) and in experiment [2] (setting [6]) was less than 100 nM in each case.
Consider `CNc1c(C(=O)NCCc2ccc(C3CCNCC3)cc2)sc2nc(C)ccc12` [Compound I-3], for which the IC50 is less than 100 nM in experiment [1] (setting [5]) and 100 to 1000 nM in experiment [2] (setting [4]).
For `CCc1nc2sc(C(=O)NCCc3ccc(OC)c(OC)c3)c(NC)c2c(C(F)(F)F)c1C` [Compound I-59], in that order: less than 100 nM and 1000 to 5000 nM.
As to `CNc1c(C(=O)NCCc2ccc(N3C[C@H]4CC[C@@H](C3)N4)c(C(F)(F)F)c2)sc2nc(C)ccc12` [Compound I-41], the figures for the IC50 in experiment [1] (setting [5]) and in experiment [2] (setting [4]) were 100 to 1000 nM and greater than 10000 nM, respectively.
On to `CNc1ccc2c(NC)c(C(=O)NCCc3ccc(N4C[C@H]5CC[C@@H](C4)N5)cc3)sc2n1` [Compound I-94], for which the IC50 was 100 to 1000 nM in experiment [1] (setting [5]) and greater than 10000 nM in experiment [2] (setting [4]).
For `CNc1c(C(=O)NCCc2c[nH]c3ccccc23)sc2ncccc12` [Compound I-48], in that order: less than 100 nM and 5000 to 10000 nM.
For `CNc1c(C(=O)NCCc2ccc(N3C[C@H]4CC[C@@H](C3)N4)cc2)sc2nc(N)ccc12` [Compound I-93, N-4-(3,8-diazabicyclo[3.2.1]octan-3-yl)phenethyl-6-amino-3-methylaminothiophene[2,3-b]pyridine-2-carboxamide], in that order: 100 to 1000 nM and 100 to 1000 nM.
For `CNc1c(C(=O)NC[C@@H](C)c2ccc(N3C[C@H]4CC[C@@H](C3)N4)cc2)sc2nc(C)ccc12` [Compound I-68], in that order: 100 to 1000 nM and 100 to 1000 nM.
With `CNc1c(C(=O)NCCc2c(F)cc(N3C[C@H]4CC[C@@H](C3)N4)cc2F)sc2nc(C)ccc12` [Compound I-45], the IC50 in experiment [1] (setting [3]) was less than 100 nM; in experiment [2] (setting [4]) it was greater than 10000 nM.
With `CNc1c(C(=O)NCCc2ccc(C3CC4CC3CN4)cc2)sc2nc(C)ccc12` (centres unmarked) [Compound I-7], the half-inhibitory concentration (IC50) is less than 100 nM in experiment [1] (setting [5]) and 100 to 1000 nM in experiment [2] (setting [4]).
For `CNc1c(C(=O)NCCc2c[nH]c3ccccc23)sc2nc(C)cc(C)c12` [Compound I-53], in that order: 100 to 1000 nM and greater than 10000 nM.
In the case of `CNc1c(C(=O)NCCc2ccc(N3C[C@H]4CC[C@@H](C3)N4)cc2F)sc2nc(C)cnc12` [Compound I-77], the IC50 in experiment [1] (setting [3]) and in experiment [2] (setting [6]) was less than 100 nM throughout.
With `CNc1c(C(=O)NCCc2ccc(N3C[C@H]4CC[C@@H](C3)N4)cc2)sc2nc(C)cc(C)c12` [Compound I-26], the results for the IC50 in experiment [1] (setting [5]) and in experiment [2] (setting [4]) were 100 to 1000 nM and 5000 to 10000 nM, respectively.
`CNc1c(C(=O)NC[C@H](C)c2cc(F)c(N3C[C@H]4CC[C@@H](C3)N4)cc2F)sc2nc(C)cnc12` [Compound I-79]: the IC50 in experiment [1] (setting [3]) was less than 100 nM; in experiment [2] (setting [4]), 100 to 1000 nM.
With `CNc1c(C(=O)NCCc2ccc(N3C[C@H]4CC[C@@H](C3)N4)cc2)sc2ncccc12` [Compound I-9], the IC50 in experiment [1] (setting [3]) is less than 100 nM; in experiment [2] (setting [4]), 100 to 1000 nM. Besides, in experiment [1] (setting [7]), the “IC50(F)/IC50(E) USP28” value amounted to 9.2. For the same compound, the “IC50(F)/IC50(E) USP25” value in experiment [2] (setting [7]) was greater than 10.
As to `CNc1c(C(=O)NCCc2ccc(N3C[C@H]4CC[C@@H](C3)N4)cc2F)sc2nc(Cl)cnc12` [Compound I-81], the concentration for half-maximal inhibition (IC50) was 1000 to 5000 nM in experiment [1] (setting [5]) and greater than 10000 nM in experiment [2] (setting [4]).

Values taken from patent publication US12486284B2, “Ubiquitin-specific protease inhibitor and preparation method therefor and use thereof” (CHASER THERAPEUTICS, INC., priority 2019, dated 2025).
